In patent publication US9701662B2, “Herbicidal compounds” (Syngenta Participations AG, priority 2014, dated 2017):

What was measured:
Format in all cases: in vivo
Setaria faberi (SETFA) [1] = assay: Pre-emergence glasshouse herbicide test; conditions: pre-emergence (sprayed after one day cultivation), 1000 g/h, evaluated after 13 days, five point scale
Description: (§1) Seeds of a variety of test species are sown in standard soil in pots (Lolium perenne (LOLPE), Solanum nigrum (SOLNI), Amaranthus retoflexus (AMARE), Setaria faberi (SETFA), Echinochloa crus-galli (ECHCG), Ipomoea hederacea (IPOHE)). After cultivation for one day (pre-emergence) or after 8 days cultivation (post-emergence) under controlled conditions in a glasshouse (at 24/16° C., day/night; 14 hours light; 65% humidity), the plants are sprayed with an aqueous spray solution derived from the formulation of the technical active ingredient in acetone/water (50:50) solution containing 0.5% Tween 20 (polyoxyethelyene sorbitan monolaurate, CAS RN 9005-64-5). Compounds are applied at 1000 g/h. The test plants are then grown in a glasshouse under controlled conditions in a glasshouse (at 24/16° C., day/night; 14 hours light; 65% humidity) and watered twice daily. After 13 days for pre and post-emergence, the test is evaluated for the percentage damage caused to the plant. The biological activities are shown in the following table on a five point scale (5=80-100%; 4=60-79%; 3=40-59%; 2=20-39%; 1=0-19%).

Lolium perenne (LOLPE) [2] = assay: Pre-emergence glasshouse herbicide test; conditions: pre-emergence (sprayed after one day cultivation), 1000 g/h, evaluated after 13 days, five point scale
Description: as §1

[3] = system: Ipomoea hederacea (IPOHE); assay: Pre-emergence glasshouse herbicide test; conditions: pre-emergence (sprayed after one day cultivation), 1000 g/h, evaluated after 13 days, five point scale
Description: as §1

[4] = system: Amaranthus retoflexus (AMARE); assay: Pre-emergence glasshouse herbicide test; conditions: pre-emergence (sprayed after one day cultivation), 1000 g/h, evaluated after 13 days, five point scale
Description: as §1

Solanum nigrum (SOLNI) [5] = assay: Pre-emergence glasshouse herbicide test; conditions: pre-emergence (sprayed after one day cultivation), 1000 g/h, evaluated after 13 days, five point scale
Description: as §1

[6] = system: Echinochloa crus-galli (ECHCG); assay: Pre-emergence glasshouse herbicide test; conditions: pre-emergence (sprayed after one day cultivation), 1000 g/h, evaluated after 13 days, five point scale
Description: as §1

Setaria faberi (SETFA) [7] = assay: Post-emergence glasshouse herbicide test; conditions: post-emergence (sprayed after 8 days cultivation), 1000 g/h, evaluated after 13 days, five point scale
Description: as §1

Lolium perenne (LOLPE) [8] = assay: Post-emergence glasshouse herbicide test; conditions: post-emergence (sprayed after 8 days cultivation), 1000 g/h, evaluated after 13 days, five point scale
Description: as §1

[9] = system: Ipomoea hederacea (IPOHE); assay: Post-emergence glasshouse herbicide test; conditions: post-emergence (sprayed after 8 days cultivation), 1000 g/h, evaluated after 13 days, five point scale
Description: as §1

[10] = system: Amaranthus retoflexus (AMARE); assay: Post-emergence glasshouse herbicide test; conditions: post-emergence (sprayed after 8 days cultivation), 1000 g/h, evaluated after 13 days, five point scale
Description: as §1

Solanum nigrum (SOLNI) [11] = assay: Post-emergence glasshouse herbicide test; conditions: post-emergence (sprayed after 8 days cultivation), 1000 g/h, evaluated after 13 days, five point scale
Description: as §1

[12] = system: Echinochloa crus-galli (ECHCG); assay: Post-emergence glasshouse herbicide test; conditions: post-emergence (sprayed after 8 days cultivation), 1000 g/h, evaluated after 13 days, five point scale
Description: as §1

| Compound | percentage damage caused to the plant, SETFA, PRE Application (Setaria faberi (SETFA) [1]) | percentage damage caused to the plant, LOLPE, PRE Application (Lolium perenne (LOLPE) [2]) | percentage damage caused to the plant, IPOHE, PRE Application [3] | percentage damage caused to the plant, AMARE, PRE Application [4] | percentage damage caused to the plant, SOLNI, PRE Application (Solanum nigrum (SOLNI) [5]) | percentage damage caused to the plant, ECHCG, PRE Application [6] | percentage damage caused to the plant, SETFA, POST Application (Setaria faberi (SETFA) [7]) | percentage damage caused to the plant, LOLPE, POST Application (Lolium perenne (LOLPE) [8]) | percentage damage caused to the plant, IPOHE, POST Application [9] | percentage damage caused to the plant, AMARE, POST Application [10] | percentage damage caused to the plant, SOLNI, POST Application (Solanum nigrum (SOLNI) [11]) | percentage damage caused to the plant, ECHCG, POST Application [12] |
| --- | --- | --- | --- | --- | --- | --- | --- | --- | --- | --- | --- | --- |
| Cc1c(Cl)c(C(=O)Nc2nnnn2C)nn(C)c1=O [Compound 1.007] | 5 (5=80-100%) | 5 (5=80-100%) | 5 (5=80-100%) | 5 (5=80-100%) | 5 (5=80-100%) | 5 (5=80-100%) | 5 (5=80-100%) | 5 (5=80-100%) | 5 (5=80-100%) | 5 (5=80-100%) | 5 (5=80-100%) | 5 (5=80-100%) |
| CCCCNc1c(C(=O)Nc2nnnn2C)nn(C)c(=O)c1C [Compound 1.008] | 1 (1=0-19%) | 1 (1=0-19%) | 2 (2=20-39%) | 4 (4=60-79%) | 2 (2=20-39%) | 1 (1=0-19%) | 1 (1=0-19%) | 1 (1=0-19%) | 2 (2=20-39%) | 5 (5=80-100%) | 5 (5=80-100%) | 1 (1=0-19%) |
| CCOc1c(C(=O)Nc2nnnn2C)nn(C)c(=O)c1C [Compound 1.009] | 3 (3=40-59%) | 3 (3=40-59%) | 5 (5=80-100%) | 5 (5=80-100%) | 5 (5=80-100%) | 4 (4=60-79%) | 5 (5=80-100%) | 4 (4=60-79%) | 5 (5=80-100%) | 5 (5=80-100%) | 5 (5=80-100%) | 5 (5=80-100%) |
| Cn1nnnc1NC(=O)c1nn(C)c(=O)c(-c2ccccc2)c1Cl [Compound 1.010] | 5 (5=80-100%) | 5 (5=80-100%) | 1 (1=0-19%) | 5 (5=80-100%) | 5 (5=80-100%) | 5 (5=80-100%) | 5 (5=80-100%) | 4 (4=60-79%) | 4 (4=60-79%) | 5 (5=80-100%) | 5 (5=80-100%) | 5 (5=80-100%) |
